Article PMC9412414, “A Study on Repositioning Nalidixic Acid via Lanthanide Complexation: Synthesis, Characterization, Cytotoxicity and DNA/Protein Binding Studies” (Pharmaceuticals, 2022)

Tests used:
[1] = tested on: HUVEC (human umbilical vein endothelial cells); assay: MTS cytotoxicity assay, HUVEC normal cell line; format: cell-based; settings: 24 h of incubation
Procedure: (§1) LoVo, MDA-MB-231 and HUVEC human cell lines were purchased from American Type Culture Collection (ATCC). Cells were routinely maintained in culture either in culture flasks or seeded in plates, using Dulbecco’s modified Eagle medium/nutrient mixture F-12 (DMEM:F12) medium supplemented with […], 10% fetal calf serum (Sigma Aldrich, St. Louis, MO, USA), 100 units/mL penicillin, 100 μg/mL streptomycin and incubated at 37 °C in 5% CO2 humidified atmosphere.
(§2) Cytotoxicity studies were performed in 96-well microtiter plates with flat bottoms (Falcon, Teterboro, NJ, USA) using the CellTiter 96 Aqueous One Solution Cell Proliferation Assay (Promega, Madison, WI, USA), an MTS-based colorimetric assay. Metabolically active cells have the ability to reduce MTS [3-(4,5-dimethylthiazol-2-yl)-5-(3-carboxymethoxyphenyl)-2-(4-sulfophenyl)-2H-tetrazolium, inner salt], a yellow tetrazolium salt, to a colored formazan that is soluble in the culture medium. Briefly, 15 × 10^3 cells per well were cultured in 100 µL culture medium. After 24 h, adherent cells were treated with different concentrations of the studied compounds, as well as adriamycin (Adr) and cisplatin (Cis-Pt), used as positive controls for 24 h and 48 h, respectively. Each well was then filled with 20 µL of reagent containing MTS and PES (phenazine ethosulfate, a cationic dye with excellent chemical stability that binds to MTS and produces a stable solution). The resulting formazan was determined using a Tecan GENios Spectrophotometer (Tecan US, Durham, NC, USA) by measuring the absorbance at λ = 492 nm after incubation for 4 h at 37 °C with moderate agitation every 15 min. The cytotoxicity tests were performed in triplicate, with results reported as mean values with standard deviations (SD). The cytotoxicity of DMSO was also investigated under the same conditions, and no harmful effect was found at doses less than 1%.
(§3) Data were expressed as cell viability by comparing with untreated cells considered 100% viable, using the following formula:(1) Cell viability (%)=absorbance of treated cells−absorbance of culture medium/absorbance of untreated cells−absorbance of culture medium

[2] = tested on: LoVo (human colorectal adenocarcinoma) cell line; assay: MTS cytotoxicity assay, LoVo cell line; format: cell-based; settings: 48 h of incubation
Procedure: as §1, §2, §3

[3] = tested on: EB–DNA system (CT-DNA); assay: Competitive binding assay with ethidium bromide (EB) through fluorescence spectroscopy; parameters: species or system calf; settings: EB 2 µM, CT-DNA 10 µM, compound 0–40 µM
Procedure: The fluorescence spectra were recorded using 1.6 mL samples containing 10 µM CT-DNA, 2 µM EB, and increasing amounts (0–40 µM with an increment of 5 µM) of tested compounds; the samples were prepared by keeping the components in contact for 10 min at room temperature, under continuous stirring and in the dark. The excitation wavelength was 500 nm, and the spectra were recorded between the wavelengths of 520 and 800 nm. A Jasco FP 6500 fluorometer and quartz cells with a 1 cm route length were employed. The classical Stern–Volmer equation (Equation (3)) was used to interpret the obtained data:(3) F0/F=1+KSV·[Q] F0 and F are the fluorescence intensities of the EB–DNA samples in the absence and presence of the tested compounds, respectively; KSV is the Stern–Volmer constant, which was computed as the slope from the plot of F0/F vs. [Q], where [Q] is the chemical concentration.
The binding ratio was plotted against the logarithm of the concentration in comparison with a control sample exposed solely to DMSO. (4) y=A1+(A2−A1)×x^n/K50^n+x^n
For fitting data points, the modified Hill function with offset (Origin®) was used: where y represents the binding ratio (F/F0), x represents the concentration, A1 represents the minimum of y values, A2 represents the maximum of y values, K50 represents the concentration corresponding to 50% binding or the half maximum binding constant, and n represents the Hill coefficient.

[4] = molecular target: T1, human serum albumin (HSA) (Homo sapiens, UniProt P02768); assay: HSA fluorescence quenching binding study; settings: for Ka (association binding constant), HSA / n1 (Number of Binding Sites), HSA / n2 (Hill Coefficient), HSA / Kd / fa (fraction of fluorophore accessible to the quencher), HSA / Kq (bimolecular quenching constant), HSA: 298 K; for Kd: read-out: Kd (dissociation constant), HSA; for fa (fraction of fluorophore accessible to the quencher), HSA / Ksv* (Stern–Volmer quenching constant), HSA: compound 0–8 µM; for Ksv* (Stern–Volmer quenching constant), HSA: Tris-HCl pH 7.4, 298 K; for Kq (bimolecular quenching constant), HSA: from Ksv* with τ0 = 10^−8 s
T1 construct: purchased Sigma-Aldrich Chemical Co. (Schnelldorf, Germany)
Procedure: (§4) Using a Jasco FP 6500 spectrofluorometer (Jasco, Tokyo, Japan) and quartz cells with a 1 cm path length, the fluorescence spectra of HSA and apo-Tf were recorded in the presence and absence of the examined substances. The 2.5 mL samples containing 2.5 µM HSA or 1 µM apo-Tf were titrated by adding 5 µL of the tested substance at a time, a volume that corresponded to a 1 µM increase in concentration. The concentration range used for these experiments varied from 0 to 8 µM. The relevant spectra were collected in the emission domains of 300–500 nm (HSA) and 305–500 nm (apo-Tf) after 3 min of continuous stirring at room temperature, using excitation wavelengths of 280 nm (HSA) and 295 nm (apo-Tf).
(§5) Experiments were conducted in a pH = 7.4 Tris-HCl buffer (5 mM Tris-HCl/50 mM NaCl for HSA and 5 mM Tris-HCl/50 mM NaCl/25 mM NaHCO3 for apo-Tf).
(§6) The following modified Stern–Volmer equation has been used to calculate the Stern–Volmer constant, which will be denoted as KSV* in order to differentiate it from the Stern–Volmer constant calculated for the DNA binding experiments:(5) F0/F0−F=1/faKsv*[Q]+1/fa where F0 and F are the fluorescence intensities in the absence and presence of the tested compounds, fa is the fraction of fluorophore accessible to the quencher (the tested compounds), [Q] is the quencher concentration, and KSV* (M^−1) is the Stern–Volmer constant; the plot of F0/(F0 − F) against 1/[Q] yields KSV as the slope and fa as the y intercept.
(§7) Subsequently, the bimolecular quenching rate constant was obtained by using Equation (6):(6) Ksv^*=Kqτ0
(§8) Kq (M^−1·s^−1) is the bimolecular quenching rate constant and τ0 is the fluorophore’s lifespan in the absence of the investigated chemicals (10^−8 s). The value of Kq can be used to assess whether the quenching phenomena have an underlying static or dynamic mechanism.
(§9) Using the following equation, the affinity constant (Ka) and the number of binding sites (n) have been calculated: (7) lgF0−F/F=lgKa+nlg[Q]
(§10) The binding affinity, Kd, can be calculated using the quadratic function below:(8) F0−F/F0−Fb=[P]t+[Q]+Kd−([P]t+[Q]+Kd)^2−4[P]t[Q]/2[P]t where F and F0 are the fluorescence intensities of the protein in the presence and absence of the quencher, respectively, Fb is the fluorescence of a fully bound protein–quencher, [P]t is the total concentration of the protein, and [Q] is the concentration of the added quencher. Each binding isotherm was plotted against the total quencher concentration in solution as a function of bound to free protein (F/F0).
(§11) The isotherms were then fitted using the nonlinear regression function below:(9) F/F0= F1+(F2−F1)Kdn/Kdn+[Q]^n where n represents the Hill coefficient, F1 and F2 are the horizontal and vertical asymptotes, respectively. The Kd in Equation (9) is derived from the quadratic binding function (Equation (8)).
(§12) Data were collected in triplicate, averaged, and expressed as mean value ± standard deviation (SD). All graph fitting models were defined and built using OriginPro® 2018.

[5] = molecular target: T2, apotransferrin (apo-Tf) (Homo sapiens, UniProt P02787); assay: Apo-Tf fluorescence quenching binding study; settings: for Ka (association binding constant), Apo-Tf / n1 (Number of Binding Sites), Apo-Tf / Kd / fa (fraction of fluorophore accessible to the quencher), Apo-Tf / Ksv* (Stern–Volmer quenching constant), Apo-Tf / quenching effect on apo-Tf fluorescence peak / n2 (Hill Coefficient), Apo-Tf: apo-Tf 1 µM; for Ka (association binding constant), Apo-Tf / n1 (Number of Binding Sites), Apo-Tf / Kd / fa (fraction of fluorophore accessible to the quencher), Apo-Tf / Kq (bimolecular quenching constant), Apo-Tf / n2 (Hill Coefficient), Apo-Tf: 298 K; for Kd: read-out: Kd (dissociation constant), Apo-Tf; for fa (fraction of fluorophore accessible to the quencher), Apo-Tf / Ksv* (Stern–Volmer quenching constant), Apo-Tf: compound 0–8 µM; for Ksv* (Stern–Volmer quenching constant), Apo-Tf: Tris-HCl pH 7.4, 298 K; for quenching effect on apo-Tf fluorescence peak: compound up to 8 µM; for Kq (bimolecular quenching constant), Apo-Tf: from Ksv* with τ0 = 10^−8 s
T2 construct: purchased Sigma-Aldrich Chemical Co. (Schnelldorf, Germany)
Procedure: as §4, §5, §6, §7, §8, §9, §10, §11, §12

T2 sequence (P02787 20-698): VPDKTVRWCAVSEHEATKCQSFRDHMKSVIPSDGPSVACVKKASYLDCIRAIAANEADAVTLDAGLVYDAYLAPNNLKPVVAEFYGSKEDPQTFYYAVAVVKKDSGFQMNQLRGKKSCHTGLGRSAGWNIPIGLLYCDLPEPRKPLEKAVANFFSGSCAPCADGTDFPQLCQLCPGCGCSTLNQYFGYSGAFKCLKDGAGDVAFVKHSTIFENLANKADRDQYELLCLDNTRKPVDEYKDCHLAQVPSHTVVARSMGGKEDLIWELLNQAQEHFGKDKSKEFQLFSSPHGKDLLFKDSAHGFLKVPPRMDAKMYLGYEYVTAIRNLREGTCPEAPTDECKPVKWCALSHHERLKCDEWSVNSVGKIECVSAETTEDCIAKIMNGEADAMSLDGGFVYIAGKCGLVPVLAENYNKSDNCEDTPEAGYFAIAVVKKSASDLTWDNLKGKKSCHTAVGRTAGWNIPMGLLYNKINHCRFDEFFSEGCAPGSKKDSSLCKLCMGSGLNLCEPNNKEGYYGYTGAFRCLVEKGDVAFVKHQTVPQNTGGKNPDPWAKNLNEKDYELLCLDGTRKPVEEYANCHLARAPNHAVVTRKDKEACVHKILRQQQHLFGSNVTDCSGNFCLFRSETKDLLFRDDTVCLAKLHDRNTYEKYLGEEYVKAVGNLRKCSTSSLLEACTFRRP
T1 sequence (P02768 25-609): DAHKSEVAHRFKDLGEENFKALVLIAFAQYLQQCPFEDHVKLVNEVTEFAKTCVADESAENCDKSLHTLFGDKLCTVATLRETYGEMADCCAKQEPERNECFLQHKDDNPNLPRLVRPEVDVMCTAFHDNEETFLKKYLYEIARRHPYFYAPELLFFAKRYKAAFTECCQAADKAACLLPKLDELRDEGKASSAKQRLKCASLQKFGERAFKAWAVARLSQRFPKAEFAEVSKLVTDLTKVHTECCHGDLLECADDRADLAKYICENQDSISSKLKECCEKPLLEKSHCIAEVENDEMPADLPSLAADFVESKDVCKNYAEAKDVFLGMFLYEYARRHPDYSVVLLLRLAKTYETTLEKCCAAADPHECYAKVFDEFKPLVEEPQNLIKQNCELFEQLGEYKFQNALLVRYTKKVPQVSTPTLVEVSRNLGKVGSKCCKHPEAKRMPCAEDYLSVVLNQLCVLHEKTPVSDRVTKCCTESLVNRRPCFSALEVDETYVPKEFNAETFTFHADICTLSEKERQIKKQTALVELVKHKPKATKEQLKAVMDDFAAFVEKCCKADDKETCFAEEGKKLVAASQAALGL

Structure (SMILES) | IC50 [1] | IC50 [2] | EB Displacement Assay K50 (half maximum binding constant) [3] | KSV, Stern–Volmer quenching constant (EB–DNA) [3] | Ka (association binding constant), HSA ([4]; HSA 2.5 µM) | n1 (Number of Binding Sites), HSA ([4]; HSA 2.5 µM) | n2 (Hill Coefficient), HSA ([4]; HSA 2.5 µM) | Kd ([4]; HSA 2.5 µM) | fa (fraction of fluorophore accessible to the quencher), HSA ([4]; HSA 2.5 µM) | Ksv* (Stern–Volmer quenching constant), HSA ([4]; HSA 2.5 µM) | IC50 (μM) LoVo [2] | Ka (association binding constant), Apo-Tf [5] | n1 (Number of Binding Sites), Apo-Tf [5] | Kd [5] | fa (fraction of fluorophore accessible to the quencher), Apo-Tf [5] | Ksv* (Stern–Volmer quenching constant), Apo-Tf [5] | quenching effect on apo-Tf fluorescence peak [5] | Kq (bimolecular quenching constant), Apo-Tf [5] | Kq (bimolecular quenching constant), HSA [4] | n2 (Hill Coefficient), Apo-Tf [5] | other results
N.N.[Cl][Pt][Cl] [Cis-Pt, cisplatin, reference compound] | 78.5 ± 16 µM | 38.6 ± 4.63 µM |  |  |  |  |  |  |  |  |  |  |  |  |  |  |  |  |  |  | 
CCn1cc(C(=O)[O-])c(=O)c2ccc(C)nc21.CCn1cc(C(=O)[O-])c(=O)c2ccc(C)nc21.O.O.O.O.[Eu+3].[OH-] [Eu(nal)2, Eu(C12H11N2O3)2(OH)(H2O)·3H2O] | > 200 µM | > 200 µM | 34.75 ± 3.69 µM | 8.35 ± 0.13 M^−1 (×10^3) | (11.99 ± 1.38) × 10^5 M^−1 | 1.13 ± 0.01 | 1.14 ± 0.27 | 4.63 ± 0.97 µM | 1.17 ± 0.04 | (1.75 ± 0.11) × 10^5 M^−1 | not toxic | (1.02 ± 0.13) × 10^4 M^−1 | 0.80 ± 0.01 | 7.07 ± 6.13 µM | 0.71 ± 0.01 | (1.85 ± 0.06) × 10^5 M^−1 | 41% | 1.85e+13 M⁻¹ s⁻¹ |  |  | quenching effect on HSA fluorescence peak ([4]; HSA 2.5 µM, compound up to 8 µM): 67%
CCn1cc(C(=O)[O-])c(=O)c2ccc(C)nc21.CCn1cc(C(=O)[O-])c(=O)c2ccc(C)nc21.O.O.O.O.[Gd+3].[OH-] [Gd(nal)2, Gd(C12H11N2O3)2(OH)(H2O)·3H2O] | > 200 µM | > 200 µM | 34.11 ± 8.90 µM | 10.47 ± 0.13 M^−1 (×10^3) | (15.52 ± 2.93) × 10^5 M^−1 | 1.15 ± 0.01 | 1.20 ± 0.23 | 4.79 ± 0.84 µM | 1.25 ± 0.03 | (1.51 ± 0.07) × 10^5 M^−1 | not toxic | (3.46 ± 1.34) × 10^4 M^−1 | 0.94 ± 0.03 | 8.87 ± 6.2 µM | 0.92 ± 0.07 | (0.78 ± 0.09) × 10^5 M^−1 |  | 7.8e+12 M⁻¹ s⁻¹ | 1.51e+13 M⁻¹ s⁻¹ | 1.20 ± 0.40 | 
CCn1cc(C(=O)[O-])c(=O)c2ccc(C)nc21.CCn1cc(C(=O)[O-])c(=O)c2ccc(C)nc21.O.O.O.[La+3].[OH-] [La(nal)2, La(C12H11N2O3)2(OH)(H2O)·2H2O] | 114 ± 46.8 µM | 25.1 ± 9.11 µM | 31.39 ± 13.66 µM | 8.90 ± 0.17 M^−1 (×10^3) | (9.03 ± 1.04) × 10^5 M^−1 | 1.09 ± 0.01 | 1.32 ± 0.11 | 3.35 ± 0.11 µM | 1.09 ± 0.02 | (1.09 ± 0.02) × 10^5 M^−1 |  | (6.94 ± 2.32) × 10^4 M^−1 | 1.00 ± 0.03 | 5.43 ± 1.46 µM | 1.20 ± 0.49 | (0.44 ± 0.23) × 10^5 M^−1 |  | 4.4e+12 M⁻¹ s⁻¹ | 1.09e+13 M⁻¹ s⁻¹ | 1.82 ± 0.55 | 
CCn1cc(C(=O)[O-])c(=O)c2ccc(C)nc21.CCn1cc(C(=O)[O-])c(=O)c2ccc(C)nc21.CCn1cc(C(=O)[O-])c(=O)c2ccc(C)nc21.O.O.O.O.O.O.O.O.[La+3] [La(nal)3, La(C12H11N2O3)3(H2O)2·6H2O] | 149 ± 17.9 µM | 49.8 ± 7.92 µM | 36.45 ± 16.53 µM | 2.48 ± 0.44 M^−1 (×10^3) | (27.48 ± 2.10) × 10^5 M^−1 | 1.16 ± 0.00 | 1.18 ± 0.08 | 2.91 ± 0.07 µM | 1.12 ± 0.01 | (2.75 ± 0.10) × 10^5 M^−1 |  | (1.51 ± 0.72) × 10^4 M^−1 | 0.86 ± 0.04 | 8.64 ± 2.22 µM | 0.80 ± 0.06 | (1.04 ± 0.13) × 10^5 M^−1 | 31% | 1.04e+13 M⁻¹ s⁻¹ | 2.75e+13 M⁻¹ s⁻¹ | 1.04 ± 0.19 | 
